Test results as given in US20060069132A1, “Azolecarboxamide herbicides” (priority 2004, published 2006).

Columns and labels:
barnyardgrass [1] = assay: Test B pre-/postemergence herbicide test; type: in vivo, Echinochloa crus-galli; details: for Plant response rating, Barnyardgrass: preemergence; for Barnyardgrass plant response rating: postemergence, visual rating, scale 0 (no effect) to 100 (complete control)
Summary of the method: (§1)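 Seeds were planted and treated preemergence with compounds formulated in a non-phytotoxic solvent mixture containing surfactant, while plants at the 1- to 4-leaf stage (2 to 18 cm) received postemergence sprays. Flooded paddy plants were grown to the 2-leaf stage. After 13 to 15 days in a greenhouse, injury was visually rated 0–100 against untreated controls.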

Surinam grass = assay: Test B pre-/postemergence herbicide test; type: in vivo, Urochloa decumbens; details: for Plant response rating, Surinam Grass: preemergence; for Surinam Grass plant response rating: postemergence, visual rating, scale 0 (no effect) to 100 (complete control)
Summary of the method: (§2)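 Test chemicals in a non-phytotoxic solvent mixture with surfactant were applied preemergence to seeded species and postemergence to plants 2-18 cm tall (1- to 4-leaf stage); rice and barnyardgrass were also tested in a flooded paddy at the 2-leaf stage. Visual rating versus controls after 13-15 days in greenhouse, scale 0 (no effect) to 100 (complete control).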

cocklebur = assay: Test B pre-/postemergence herbicide test; type: in vivo, Xanthium strumarium; details: for Plant response rating, Cocklebur: preemergence; for Cocklebur plant response rating: postemergence, visual rating, scale 0 (no effect) to 100 (complete control)
Summary of the method: as §1

corn = assay: Test B pre-/postemergence herbicide test; type: in vivo, Zea mays; details: for Plant response rating, Corn: preemergence; for Corn plant response rating: postemergence, visual rating, scale 0 (no effect) to 100 (complete control)
Summary of the method: as §2

large crabgrass = assay: Test B pre-/postemergence herbicide test; type: in vivo, Digitaria sanguinalis; details: for Plant response rating, Crabgrass, Large: preemergence; for Crabgrass, Large plant response rating: postemergence, visual rating, scale 0 (no effect) to 100 (complete control)
Summary of the method: as §2

giant foxtail = assay: Test B pre-/postemergence herbicide test; type: in vivo, Setaria faberi; details: for Plant response rating, Foxtail, Giant: preemergence; for Foxtail, Giant plant response rating: postemergence, visual rating, scale 0 (no effect) to 100 (complete control)
Summary of the method: as §2

lambsquarters = assay: Test B pre-/postemergence herbicide test; type: in vivo, Chenopodium album; details: for Plant response rating, Lambsquarters: preemergence; for Lambsquarters plant response rating: postemergence, visual rating, scale 0 (no effect) to 100 (complete control)
Summary of the method: as §2

morningglory = assay: Test B pre-/postemergence herbicide test; type: in vivo, Ipomoea coccinea; details: for Morningglory plant response rating: postemergence, visual rating, scale 0 (no effect) to 100 (complete control)
Summary of the method: as §1

pigweed = assay: Test B pre-/postemergence herbicide test; type: in vivo, Amaranthus retroflexus; details: for Plant response rating, Pigweed: preemergence; for Pigweed plant response rating: postemergence, visual rating, scale 0 (no effect) to 100 (complete control)
Summary of the method: as §2

rice [2] = assay: Test B pre-/postemergence herbicide test; type: in vivo, Oryza sativa; details: preemergence
Summary of the method: as §2

velvetleaf = assay: Test B pre-/postemergence herbicide test; type: in vivo, Abutilon theophrasti; details: for Plant response rating, Velvetleaf: preemergence; for Velvetleaf plant response rating: postemergence, visual rating, scale 0 (no effect) to 100 (complete control)
Summary of the method: as §2

blackgrass = assay: Test B postemergence herbicide test; type: in vivo, Alopecurus myosuroides; details: postemergence, visual rating, scale 0 (no effect) to 100 (complete control)
Summary of the method: (§3)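 Postemergence plants were sprayed with formulated test chemicals at 2 to 18 cm height (1- to 4-leaf stage); paddy species were grown to the 2-leaf stage. After 13 to 15 days in a greenhouse, injury was rated visually against untreated controls on a 0–100 scale (0 = no effect, 100 = complete control).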

wheat = assay: Test B postemergence herbicide test; type: in vivo, Triticum aestivum; parameters: key to Wheat plant response rating: 0 = no effect, 100 = complete control; details: postemergence, 500 g ai/ha; visual rating, scale 0 (no effect) to 100 (complete control)
Summary of the method: (§4)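 Each value is a visual 0–100 response rating taken against controls 13 to 15 days after treatment in the greenhouse. Plants received formulated chemical postemergence at the 1- to 4-leaf stage or, in flooded paddy, at the 2-leaf stage.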

wild oat = assay: Test B postemergence herbicide test; type: in vivo, Avena fatua; details: postemergence, visual rating, scale 0 (no effect) to 100 (complete control)
Summary of the method: as §4

rice [3] = assay: Test B flooded paddy test; type: in vivo, Oryza sativa; details: 1000 g ai/ha, visual rating, scale 0 to 100 (0 no effect, 100 complete control), 13 to 15 days
Summary of the method: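 Paddy species grown to the 2-leaf stage under flooding; blackgrass sprayed postemergence at 2–18 cm (1- to 4-leaf stage). Plants kept in a greenhouse for 13 to 15 days, then visually rated against controls on 0 (no effect) to 100 (complete control).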

[4] = tested on: small flower umbrella sedge; assay: Test B flooded paddy test; type: in vivo, Cyperus difformis; details: 1000 g ai/ha, visual rating, scale 0 to 100 (0 no effect, 100 complete control), 13 to 15 days
Summary of the method: as §3

ducksalad [5] = assay: Test B flooded paddy test; type: in vivo, Heteranthera limosa; details: 1000 g ai/ha, visual rating, scale 0 to 100 (0 no effect, 100 complete control), 13 to 15 days
Summary of the method: as §3

barnyardgrass [6] = assay: Test B flooded paddy test; type: in vivo, Echinochloa crus-galli; details: 1000 g ai/ha, visual rating, scale 0 to 100 (0 no effect, 100 complete control), 13 to 15 days
Summary of the method: as §3

rice [7] = assay: Test C flooded paddy test; type: in vivo, Oryza sativa
Summary of the method: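 Plants were grown to the 1- to 4-leaf stage (2–18 cm) and then treated postemergence, or grown to the 2-leaf stage for the flooded paddy test. They were held in a greenhouse for 12 to 14 days and then scored by eye against controls, where 0 is no effect and 100 is complete control.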

[8] = tested on: smallflower umbrella sedge; assay: Test C flooded paddy test; type: in vivo, Cyperus difformis
ducksalad [9] = assay: Test C flooded paddy test; type: in vivo, Heteranthera limosa
barnyardgrass [10] = assay: Test C flooded paddy test; type: in vivo, Echinochloa crus-galli
Summary of the method: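 Ratings (0 = no effect, 100 = complete control) come from visual comparison with untreated plants after 12 to 14 days in the greenhouse. Treatment was postemergence at the 1- to 4-leaf stage (2–18 cm), or at the 2-leaf stage for the flooded paddy barnyardgrass.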

[11] = 500 g ai/ha, visual rating 0-100, 0 no effect, 100 complete control
[12] = 125 g ai/ha, 0 to 100 scale, 0 is no effect, 100 is complete control
[13] = 62 g ai/ha, scale 0 to 100 (0 no effect, 100 complete control)
[14] = 125 g ai/ha, scale 0 to 100 (0 no effect, 100 complete control)
[15] = 250 g ai/ha, scale of 0 to 100, 0 is no effect, 100 is complete control
[16] = 500 g ai/ha, visual rating after 12 to 14 days, scale 0 to 100 (0 no effect, 100 complete control)

## CCn1nc(C(C)(C)C)cc1C(=O)Nc1cc(C(=O)N2CC=CC2)ccn1 [Compound 142]
Barnyardgrass [1]; [11]
  Plant response rating, Barnyardgrass: 100
Barnyardgrass [1]; 125 g ai/ha
  Barnyardgrass plant response rating: 0
Barnyardgrass [1]; 500 g ai/ha
  Barnyardgrass plant response rating: 10
Barnyardgrass [1]; [12]
  Plant response rating, Barnyardgrass: 70
Surinam grass; [11]
  Plant response rating, Surinam Grass: 60
Surinam grass; 125 g ai/ha
  Surinam Grass plant response rating: 10
Surinam grass; 500 g ai/ha
  Surinam Grass plant response rating: 20
Surinam grass; [12]
  Plant response rating, Surinam Grass: 10
cocklebur; [11]
  Plant response rating, Cocklebur: 40
cocklebur; 125 g ai/ha
  Cocklebur plant response rating: 40
cocklebur; 500 g ai/ha
  Cocklebur plant response rating: 40
cocklebur; [12]
  Plant response rating, Cocklebur: 30
corn; [11]
  Plant response rating, Corn: 0
corn; 125 g ai/ha
  Corn plant response rating: 0
corn; 500 g ai/ha
  Corn plant response rating: 0
corn; [12]
  Plant response rating, Corn: 0
Large crabgrass; [11]
  Plant response rating, Crabgrass, Large: 100
Large crabgrass; 125 g ai/ha
  Crabgrass, Large plant response rating: 0
Large crabgrass; 500 g ai/ha
  Crabgrass, Large plant response rating: 10
Large crabgrass; [12]
  Plant response rating, Crabgrass, Large: 80
Giant foxtail; [11]
  Plant response rating, Foxtail, Giant: 100
Giant foxtail; 125 g ai/ha
  Foxtail, Giant plant response rating: 30
Giant foxtail; 500 g ai/ha
  Foxtail, Giant plant response rating: 30
Giant foxtail; [12]
  Plant response rating, Foxtail, Giant: 60
lambsquarters; [11]
  Plant response rating, Lambsquarters: 100
lambsquarters; 125 g ai/ha
  Lambsquarters plant response rating: 60
lambsquarters; 500 g ai/ha
  Lambsquarters plant response rating: 80
lambsquarters; [12]
  Plant response rating, Lambsquarters: 100
morningglory; 500 g ai/ha, visual rating 0-100, 0 no effect, 100 complete control, preemergence
  Plant response rating, Morningglory: 30
morningglory; 125 g ai/ha
  Morningglory plant response rating: 0
morningglory; 500 g ai/ha
  Morningglory plant response rating: 50
pigweed; [11]
  Plant response rating, Pigweed: 100
pigweed; 125 g ai/ha
  Pigweed plant response rating: 50
pigweed; 500 g ai/ha
  Pigweed plant response rating: 60
pigweed; [12]
  Plant response rating, Pigweed: 100
Rice [2]; [11]
  Plant response rating, Rice: 80
Rice [2]; [12]
  Plant response rating, Rice: 30
velvetleaf; [11]
  Plant response rating, Velvetleaf: 100
velvetleaf; 125 g ai/ha
  Velvetleaf plant response rating: 10
velvetleaf; 500 g ai/ha
  Velvetleaf plant response rating: 60
velvetleaf; [12]
  Plant response rating, Velvetleaf: 80
blackgrass; 125 g ai/ha
  Blackgrass plant response rating: 40
blackgrass; 500 g ai/ha
  Blackgrass plant response rating: 40
wheat
  Wheat plant response rating: 10
Wild oat; 125 g ai/ha
  Oat, Wild plant response rating: 20
Wild oat; 500 g ai/ha
  Oat, Wild plant response rating: 20
Rice [3]
  Rice plant response rating: 70
[4]
  Sedge, Umbrella plant response rating: 80
Ducksalad [5]
  Ducksalad plant response rating: 90
Barnyardgrass [6]
  Barnyardgrass plant response rating: 90
Rice [7]; [13]
  Rice plant response rating: 70
Rice [7]; [14]
  Rice plant response rating: 70
Rice [7]; [15]
  Rice plant response rating: 70
Rice [7]; [16]
  Plant response rating, Rice: 70
[8]; [13]
  Sedge, Umbrella plant response rating: 75
[8]; [14]
  Sedge, Umbrella plant response rating: 80
[8]; [15]
  Sedge, Umbrella plant response rating: 80
[8]; [16]
  Plant response rating, Sedge, Umbrella: 90
Ducksalad [9]; [13]
  Ducksalad plant response rating: 75
Ducksalad [9]; [14]
  Ducksalad plant response rating: 90
Ducksalad [9]; [15]
  Ducksalad plant response rating: 95
Ducksalad [9]; [16]
  Plant response rating, Ducksalad: 100
Barnyardgrass [10]; [13]
  Barnyardgrass plant response rating: 50
Barnyardgrass [10]; 125 g ai/ha, scale of 0 to 100, 0 is no effect, 100 is complete control
  Barnyardgrass plant response rating: 65
Barnyardgrass [10]; [15]
  Barnyardgrass plant response rating: 80
Barnyardgrass [10]; [16]
  Plant response rating, Barnyardgrass: 90
